Values of other authors, collected in paper PMC7693203 (Epilepsia, 2020).
Marks after values point to notes of the source that are not given here.

Conditions: cited from earlier work
[1] = trial 1447, patients with epilepsy, N = 28
[2] = trial 1447, patients with epilepsy, N = 34

## C=C(C)[C@@H]1CCC(C)=C[C@H]1c1c(O)cc(CCCCC)cc1O [CBD, cannabidiol]
Trial 1447, of 34
  patients with epilepsy reporting AEs: 68%
[1]
  Abdominal pain: 0 (0) n (%)
  Chromaturia: 0 (0) n (%)
  Diarrhea: 16 (57) n (%)
  Fatigue: 3 (11) n (%)
  Flatulence: 0 (0) n (%)
  Headache: 0 (0) n (%)
  Hepatic enzyme increased: 0 (0) ^e n (%)
  Nausea: 4 (14) n (%)
  Somnolence: 1 (4) n (%)
[2]
  AEs leading to withdrawal: 2 (6) n (%)
  Death: 0 (0) n (%)
  Patient with at least 1 AE: 23 (68) n (%)
  Serious AEs: 2 (6) n (%)
  Severe AEs: 1 (3) n (%)
Trial 1447
  elevations in transaminase levels reported as AEs: three
